The source of these data is US20240327364A1, “THERAPEUTIC TARGETING OF GPR68 TO INDUCE FERROPTOSIS” (University Of Maryland, Baltimore, priority 2023, published 2024).

Structures are written as SMILES. Read-outs that look alike come from different tables or passages of the source.

For one assay, the target named is T1, SRPK2 (Homo sapiens, UniProt P78362).
T1 construct: purchased DiscoveRx (Fremont, CA)
Briefly: KinomeScan. The conditions noted are these: read-out: % Control. The format is binding.

A further assay concerns the target T2, RIPK4 (Homo sapiens, UniProt P57078).
T2 construct: purchased DiscoveRx (Fremont, CA)
As to the kind of experiment: KinomeScan. The format is binding. The settings on record: read-out: % Control.

In the next assay the target is T3, MRCKA (Homo sapiens, UniProt Q5VT25).
T3 construct: purchased DiscoveRx
As to the kind of experiment: KinomeScan. The settings on record: read-out: % Control. Format: binding.

For a further assay, the target named is T4, EGFR(S752-1759del) (Homo sapiens, UniProt P00533, DEL752-759).
T4 construct: purchased DiscoveRx (Fremont, CA)
Briefly: KinomeScan. The format is binding. The settings on record: read-out: % Control.

The next assay concerns the target T5, ACVR1B (Homo sapiens, UniProt P36896).
T5 construct: purchased DiscoveRx
As to the kind of experiment: KinomeScan. The format is binding. The conditions noted are these: read-out: % Control.

Another assay has as its target T6, DMPK2 (Homo sapiens, UniProt Q6DT37).
T6 construct: purchased DiscoveRx (Fremont, CA), KinomeScan service
As to the kind of experiment: KinomeScan. Format: binding. The settings on record: read-out: % Control.

The next assay has as its target T7, TRKB (Homo sapiens, UniProt Q16620).
T7 construct: purchased DiscoveRx (Fremont, CA)
As to the kind of experiment: KinomeScan. Format: binding. The conditions noted are these: read-out: % Control.

The target of assay [1] is T8, RPS6KA5(Kin.Dom.1-N-terminal) (Homo sapiens, UniProt O75582).
T8 construct: RPS6KA5(Kin.Dom.1-N-terminal); purchased DiscoveRx (Fremont, CA)
Briefly: KinomeScan. The format is binding. The settings on record: read-out: % Control.

The target in another assay is T9, ABL1-phosphorylated (Homo sapiens, UniProt P00519).
T9 construct: purchased DiscoveRx
As to the kind of experiment: KinomeScan. The format is binding. The conditions noted are these: read-out: % Control.

A further assay concerns the target T10, CB1 (Homo sapiens, UniProt P21554).
T10 construct: host or cells: Chem-1 cells with promiscuous Gα15
Briefly: GPCR Profiler. The format is cell-based.

Another assay addresses CDKL5 (Homo sapiens, UniProt O76039). As to the kind of experiment: KinomeScan. The format is binding. The settings on record: read-out: % Control.
For the next assay, the target named is T11, NK3 (Homo sapiens, UniProt P29371).
T11 construct: host or cells: Chem-1 cells expressing Gα15
Briefly: GPCR Profiler. The format is cell-based.

A further assay has as its target T12, CXCR1 (Homo sapiens, UniProt P25024).
T12 construct: host or cells: Chem-1 cells with Gα15
Briefly: GPCR Profiler. The format is cell-based.

A further assay concerns the target T13, ANKK1 (Homo sapiens, UniProt Q8NFD2).
T13 construct: purchased DiscoveRx (Fremont, CA)
Briefly: KinomeScan. Format: binding. The settings on record: read-out: % Control.

In another assay the target is T14, BMPR1B (Homo sapiens, UniProt O00238).
T14 construct: purchased DiscoveRx (Fremont, CA)
Briefly: KinomeScan. The format is binding. The settings on record: read-out: % Control.

Another assay deals with T15, NTR1 (Homo sapiens, UniProt P30989).
T15 construct: host or cells: Chem-1 cells expressing Gα15
As to the kind of experiment: GPCR Profiler. The format is cell-based.

Another assay deals with CSNK1A1L (Homo sapiens, UniProt Q8N752). Briefly: KinomeScan. Format: binding. The conditions noted are these: read-out: % Control.
A further assay deals with T16, EGFR(G719C) (Homo sapiens, UniProt P00533, G719C).
T16 construct: purchased DiscoveRx (Fremont, CA), KinomeScan service
As to the kind of experiment: KinomeScan. The format is binding. The conditions noted are these: read-out: % Control.

The target in a further assay is T17, BLY1 (Homo sapiens, UniProt Q15722).
T17 construct: host or cells: Chem-1 cells with promiscuous Gα15
As to the kind of experiment: GPCR Profiler. Format: cell-based.

For another assay, the target named is T18, PIK3CG (Homo sapiens, UniProt P48736).
T18 construct: purchased DiscoveRx (Fremont, CA)
Briefly: KinomeScan. Format: binding. The conditions noted are these: read-out: % Control.

Another assay concerns HT-1080. As to the kind of experiment: Cell Titer-Glo viability, Fibrosarcoma. Format: cell-based. Here is the method:
(§1) OGM2 kills wide variety of cancer cell types. Cell sensitivity can be classified in to Very Sensitive (LC50<2 μM), Sensitive (LC50=2 to 10 μM), Mildly Sensitive (LC50>10 μM), and Refractory (no killing at 10 μM). The listed established cell were incubated with OGM2 at 2 μM or 10 μM for 72 hours under standard cell culture conditions, and relative cell number was assessed using Cell Titer-Glo Luminescent Cell Viability Assay (Promega™) following the manufacturer's instructions. Luminescence was determined using a Cytation 5 reader and Gen5 software package (BioTek™).
(§2) Cancer cells, which are very sensitive to killing by OGM2 (LCs <2 μM), with reported mRNA expression of GPR68 and the related proton sensing receptor GPR4. LC50's (concentrations causing 50% lethality) were determined using CellTiter-Glo (Promega™, G7570). Cells were plated in 12-well plates (CELLTREAT Scientific Products, 229112) in 1 ml of DMEM with high glucose, GlutaMAX, HEPES, or RPMI 1640 with Penicillin-Streptomycin (ThermoFisher™, 10564029, 11875119 and 15140122) and 10% FBS. Cells were incubated overnight at 37° C. in 5% CO2. Then 1 mL of fresh media was added with DMSO, OGM, or positive control (Erastin; APExBIO Technology, LLC, B1524) and cells incubated for 3 days. On the third day, all media was removed, cells were rinsed with 1×PBS, PBS was removed, and 200 μL of 1× Passive Lysis Buffer (Promega™, E1941) was added to each well. […]. Subsequently, 20 μL of lysate was added to 100 μL CellTiter-Glo™ reagent on a LUMITRAC 200 plate (Greiner™ bio-one, 82050-726). Plates were briefly spun down and read on a GloMax-Multi Detection System (Promega™).
(§3) The cells listed in the tables above were incubated with OGM2 at 2 μM or 10 μM for 72 hours under standard cell culture conditions, and relative cell number was assessed using Cell Titer-Glo Luminescent Cell Viability Assay (Promega™) following the manufacturer's instructions. Luminescence was determined using a Cytation 5 reader and Gen5 software package (BioTek™). RNA expression of GPR68 and GPR4 in the corresponding cancer cell lines are listed, according to the publicly available The Human Protein Atlas version 22.0 and Ensembl version 103.38 (see proteinatlas.org). The consensus normalized expression value (“nTPM”=normalize transcript per million) was calculated as the maximum nTPM value for each gene in the two data sources.

Another assay relates to HeLa. Briefly: Cell Titer-Glo viability, Cervical cancer. The format is cell-based. As to the method:
as §1, §2, §3
In general terms: In ATP-based viability assays light output follows the ATP content of the culture.

T10 sequence (P21554 whole entry, species assumed): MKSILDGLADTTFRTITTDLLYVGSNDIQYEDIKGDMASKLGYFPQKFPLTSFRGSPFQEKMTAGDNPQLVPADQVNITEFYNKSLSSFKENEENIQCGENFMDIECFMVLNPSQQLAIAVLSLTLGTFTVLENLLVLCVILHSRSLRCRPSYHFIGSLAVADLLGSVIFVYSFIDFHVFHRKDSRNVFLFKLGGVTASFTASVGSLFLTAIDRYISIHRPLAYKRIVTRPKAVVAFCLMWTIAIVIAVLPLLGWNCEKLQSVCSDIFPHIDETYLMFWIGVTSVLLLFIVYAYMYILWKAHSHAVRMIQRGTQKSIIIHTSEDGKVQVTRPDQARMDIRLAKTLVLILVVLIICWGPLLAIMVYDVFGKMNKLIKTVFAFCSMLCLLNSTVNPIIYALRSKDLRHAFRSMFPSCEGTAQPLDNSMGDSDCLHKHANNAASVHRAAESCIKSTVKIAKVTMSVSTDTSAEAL
T17 sequence (Q15722 whole entry): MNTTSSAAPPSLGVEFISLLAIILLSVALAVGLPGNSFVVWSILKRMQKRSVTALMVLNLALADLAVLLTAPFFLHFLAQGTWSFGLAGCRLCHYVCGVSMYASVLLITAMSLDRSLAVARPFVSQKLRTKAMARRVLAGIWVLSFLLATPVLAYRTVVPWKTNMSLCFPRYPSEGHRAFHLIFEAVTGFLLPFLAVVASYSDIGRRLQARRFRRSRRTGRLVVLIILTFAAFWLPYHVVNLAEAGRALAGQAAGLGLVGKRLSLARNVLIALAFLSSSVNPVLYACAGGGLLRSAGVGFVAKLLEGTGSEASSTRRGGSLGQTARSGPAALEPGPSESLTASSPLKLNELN
T15 sequence (P30989 whole entry, species assumed): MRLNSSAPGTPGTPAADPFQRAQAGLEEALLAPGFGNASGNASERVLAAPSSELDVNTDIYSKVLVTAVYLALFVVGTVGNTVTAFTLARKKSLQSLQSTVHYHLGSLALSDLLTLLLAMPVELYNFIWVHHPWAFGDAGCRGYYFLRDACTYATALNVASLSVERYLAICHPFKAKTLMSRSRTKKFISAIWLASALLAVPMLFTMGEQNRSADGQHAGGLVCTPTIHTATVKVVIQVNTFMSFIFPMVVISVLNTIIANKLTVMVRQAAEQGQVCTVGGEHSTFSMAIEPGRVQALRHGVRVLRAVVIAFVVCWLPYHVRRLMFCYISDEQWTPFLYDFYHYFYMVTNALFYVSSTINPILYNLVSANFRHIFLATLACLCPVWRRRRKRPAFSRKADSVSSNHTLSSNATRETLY
T12 sequence (P25024 whole entry, species assumed): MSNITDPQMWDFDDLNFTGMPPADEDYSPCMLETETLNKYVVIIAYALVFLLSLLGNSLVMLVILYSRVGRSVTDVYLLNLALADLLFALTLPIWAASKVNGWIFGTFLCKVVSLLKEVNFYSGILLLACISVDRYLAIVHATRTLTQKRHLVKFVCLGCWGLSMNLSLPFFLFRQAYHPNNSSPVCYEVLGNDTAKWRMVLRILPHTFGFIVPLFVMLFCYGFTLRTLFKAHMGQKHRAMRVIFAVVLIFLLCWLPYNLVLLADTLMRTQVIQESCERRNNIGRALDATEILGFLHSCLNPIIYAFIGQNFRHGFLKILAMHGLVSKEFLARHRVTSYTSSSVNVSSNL
T11 sequence (P29371 whole entry): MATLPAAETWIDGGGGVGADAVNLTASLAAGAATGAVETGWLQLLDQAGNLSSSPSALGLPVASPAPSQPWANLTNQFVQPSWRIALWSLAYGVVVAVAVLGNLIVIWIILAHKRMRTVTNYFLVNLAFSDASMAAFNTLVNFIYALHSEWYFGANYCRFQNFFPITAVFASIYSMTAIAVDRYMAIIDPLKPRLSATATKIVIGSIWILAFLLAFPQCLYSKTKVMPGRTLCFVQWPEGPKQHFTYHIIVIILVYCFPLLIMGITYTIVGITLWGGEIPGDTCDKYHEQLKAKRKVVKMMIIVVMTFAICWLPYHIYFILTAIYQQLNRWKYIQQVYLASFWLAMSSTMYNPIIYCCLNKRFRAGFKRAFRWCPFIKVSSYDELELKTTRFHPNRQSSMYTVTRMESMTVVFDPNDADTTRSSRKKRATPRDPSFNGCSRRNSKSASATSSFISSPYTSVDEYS
T1 sequence (P78362 whole entry): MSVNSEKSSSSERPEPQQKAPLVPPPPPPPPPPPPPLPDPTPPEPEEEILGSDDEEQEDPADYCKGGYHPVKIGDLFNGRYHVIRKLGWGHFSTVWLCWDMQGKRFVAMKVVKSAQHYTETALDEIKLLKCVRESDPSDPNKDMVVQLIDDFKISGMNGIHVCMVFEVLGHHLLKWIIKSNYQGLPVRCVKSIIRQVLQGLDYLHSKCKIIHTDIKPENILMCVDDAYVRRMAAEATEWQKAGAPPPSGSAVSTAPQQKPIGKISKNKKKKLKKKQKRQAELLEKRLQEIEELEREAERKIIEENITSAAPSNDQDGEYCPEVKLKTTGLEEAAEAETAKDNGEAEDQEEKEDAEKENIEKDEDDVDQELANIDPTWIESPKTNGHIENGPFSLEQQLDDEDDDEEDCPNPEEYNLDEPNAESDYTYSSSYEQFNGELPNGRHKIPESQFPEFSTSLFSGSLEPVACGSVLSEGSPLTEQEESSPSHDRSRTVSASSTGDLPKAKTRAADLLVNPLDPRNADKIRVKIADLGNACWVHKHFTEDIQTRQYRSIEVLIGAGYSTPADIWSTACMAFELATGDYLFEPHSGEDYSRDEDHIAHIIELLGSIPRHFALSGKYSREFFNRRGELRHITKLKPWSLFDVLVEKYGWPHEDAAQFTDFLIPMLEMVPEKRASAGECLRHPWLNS
T16 sequence (P00533 25-1210 G719C): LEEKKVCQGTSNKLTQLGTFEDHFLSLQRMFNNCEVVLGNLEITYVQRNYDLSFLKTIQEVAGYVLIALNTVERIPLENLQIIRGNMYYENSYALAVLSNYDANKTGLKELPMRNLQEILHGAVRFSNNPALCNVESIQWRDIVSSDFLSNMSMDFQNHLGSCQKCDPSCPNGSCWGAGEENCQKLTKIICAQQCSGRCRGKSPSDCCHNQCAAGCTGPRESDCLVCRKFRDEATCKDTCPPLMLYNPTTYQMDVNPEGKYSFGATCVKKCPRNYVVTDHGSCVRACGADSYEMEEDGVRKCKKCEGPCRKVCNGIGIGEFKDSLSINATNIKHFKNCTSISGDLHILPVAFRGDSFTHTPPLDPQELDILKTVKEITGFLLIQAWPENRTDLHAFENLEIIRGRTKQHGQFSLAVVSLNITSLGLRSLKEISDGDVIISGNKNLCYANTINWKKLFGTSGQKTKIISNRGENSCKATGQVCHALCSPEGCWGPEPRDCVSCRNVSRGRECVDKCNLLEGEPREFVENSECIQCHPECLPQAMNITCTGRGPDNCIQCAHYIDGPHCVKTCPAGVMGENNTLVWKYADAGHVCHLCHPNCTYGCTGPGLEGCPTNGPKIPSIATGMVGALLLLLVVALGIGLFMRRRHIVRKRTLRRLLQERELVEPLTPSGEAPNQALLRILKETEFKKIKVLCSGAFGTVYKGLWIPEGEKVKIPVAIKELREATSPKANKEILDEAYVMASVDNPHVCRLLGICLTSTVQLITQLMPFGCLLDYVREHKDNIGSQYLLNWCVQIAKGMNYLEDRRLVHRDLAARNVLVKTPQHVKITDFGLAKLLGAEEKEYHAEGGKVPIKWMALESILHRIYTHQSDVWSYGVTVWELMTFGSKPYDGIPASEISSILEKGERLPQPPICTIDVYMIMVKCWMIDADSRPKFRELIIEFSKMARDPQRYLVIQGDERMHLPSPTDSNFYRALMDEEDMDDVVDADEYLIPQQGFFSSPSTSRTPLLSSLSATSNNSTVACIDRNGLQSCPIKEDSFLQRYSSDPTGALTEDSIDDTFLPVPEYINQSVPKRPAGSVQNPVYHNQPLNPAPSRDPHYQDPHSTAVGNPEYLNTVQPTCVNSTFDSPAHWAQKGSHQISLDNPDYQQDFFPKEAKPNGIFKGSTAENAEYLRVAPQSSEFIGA
T2 sequence (P57078 whole entry): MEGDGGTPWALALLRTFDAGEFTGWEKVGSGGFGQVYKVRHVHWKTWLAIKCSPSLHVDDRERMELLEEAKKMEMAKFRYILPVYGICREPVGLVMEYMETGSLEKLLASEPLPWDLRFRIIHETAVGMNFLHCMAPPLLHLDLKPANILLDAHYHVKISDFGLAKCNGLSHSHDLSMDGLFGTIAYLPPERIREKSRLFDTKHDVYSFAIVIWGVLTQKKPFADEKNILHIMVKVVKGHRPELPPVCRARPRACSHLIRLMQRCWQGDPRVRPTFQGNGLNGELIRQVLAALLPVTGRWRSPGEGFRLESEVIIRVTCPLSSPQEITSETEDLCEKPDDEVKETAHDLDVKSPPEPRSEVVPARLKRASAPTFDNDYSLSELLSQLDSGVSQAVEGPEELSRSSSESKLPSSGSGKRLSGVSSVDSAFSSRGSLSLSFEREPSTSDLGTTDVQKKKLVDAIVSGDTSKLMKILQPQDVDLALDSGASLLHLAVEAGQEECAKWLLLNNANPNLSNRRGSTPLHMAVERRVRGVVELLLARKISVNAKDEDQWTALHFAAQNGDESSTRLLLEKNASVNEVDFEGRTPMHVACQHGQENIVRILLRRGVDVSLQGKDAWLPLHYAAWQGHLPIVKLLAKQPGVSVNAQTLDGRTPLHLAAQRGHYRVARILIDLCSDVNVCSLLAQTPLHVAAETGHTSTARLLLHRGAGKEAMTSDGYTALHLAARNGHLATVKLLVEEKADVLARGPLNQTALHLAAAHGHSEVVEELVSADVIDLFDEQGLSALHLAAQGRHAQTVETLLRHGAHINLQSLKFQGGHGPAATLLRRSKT
T9 sequence (P00519 242-493 limits assumed): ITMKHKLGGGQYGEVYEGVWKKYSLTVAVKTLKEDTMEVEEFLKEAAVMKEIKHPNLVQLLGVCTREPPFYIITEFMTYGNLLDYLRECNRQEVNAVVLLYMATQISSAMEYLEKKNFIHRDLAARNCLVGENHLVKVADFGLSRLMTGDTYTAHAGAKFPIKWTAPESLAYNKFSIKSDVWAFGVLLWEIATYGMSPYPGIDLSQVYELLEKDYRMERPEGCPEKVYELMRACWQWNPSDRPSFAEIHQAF

With `CCc1ccc2c(c1)C1(NN=C(c3cccc4ccccc34)S1)C(=O)N2` (stereo not shown) [OGM1, 5-ethyl-5′-naphthalen-1-ylspiro[1H-indole-3,2′-3H-1,3,4-thiadiazole]-2-one], the remaining binding at 10 µM at SRPK2 worked out at 100%; at RIPK4, 81%; at MRCKA, 78%; at EGFR(S752-1759del), 91%; on ACVR1B, 100%; at DMPK2 it was 93%. The remaining binding at 10 µM on TRKB was determined as 51%; in [1], 100%; on ABL1-phosphorylated it was 93%; on CDKL5, 85%; at ANKK1 it was 100%; on BMPR1B it was 81%. Moreover, the remaining binding at 10 µM at CSNK1A1L, at EGFR(G719C) and at PIK3CG was 100% throughout. In addition, the Antagonism on CB1 (10 uM) is recorded as −6.8; on NK3 (10 uM) it was −3; at CXCR1 (10 uM), 6.5; at NTR1 (10 uM), 1.6; on BLY1 (10 uM) it was −5.5. Besides, the Agonism on CB1 (12.5 uM) was −0.1; on NK3 (12.5 uM), 0.5; at CXCR1 (12.5 uM), −0.7; on NTR1 (12.5 uM) it was 1; at BLY1 (12.5 uM) it was 0.3.
In the case of `CCc1ccc2c(c1)C1(NN=C(c3ccccc3)S1)C(=O)N2` (stereo not shown) [OGM2], the Class result in the assay on HT-1080 is given as “Sensitive (Sensitive (LC50=2 to 10 μM))”; in the assay with HeLa it was “Mildly”; in the assay on HeLa (Table 13), “Low”. The “% Survival 2 μM OGM” value in the assay on HT-1080 (72 hours) is given as 64.2%; with HeLa (72 hours) it was 91.5%. The “% Survival 10 μM OGM” value in the assay with HT-1080 (72 hours) came to 21.4%; in the assay on HeLa (72 hours) it was 68.0%. Besides, the CC50 in the assay on HT-1080 (Homo sapiens, HT-1080, 72 hours, read-out: LC50 (the source's name)) was 2 to 10 µM; in the assay on HeLa (Homo sapiens, HeLa, 72 hours, read-out: LC50 (the source's name)), above 10 µM.
